Test results taken from patent publication US20050113420A1, “Methionine aminopeptidase inhibitor” (priority 2002, published 2005).

Legend:
EcMetAP = molecular target: T1, EcMetAP (Escherichia coli, UniProt P0AE18); assay: EcMetAP inhibition, Met-S-C-Phe thiopeptolide/DTNB assay at 412 nm; format: biochemical, E. coli; details: for IC50: Co-loaded enzyme, estimated IC50 at eight inhibitor concentrations, read-out: IC50(μM) EMetAP
T1 construct: made in house; host or cells: E. coli
Source text: EcMetAP was cloned and overexpressed in E. coli, and purified by (NH4)2SO4 precipitation and Q-Sepharose column separation to give apo-EcMetAP.
(§1) Hydrolysis of the synthesized Met-S-C-Phe thiopeptolide substrate generates a free thiol group, which reacts with excessive DTNB instantly to produce a highly chromogenic product, 3-carboxyl-4-nitrothiophenol (ε412=13,600 M^−1cm^−1). Therefore, the enzymatic reaction catalyzed by MetAP can be continuously monitored at 412 nm on a SpectraMAX 340 microplate reader.
(§2) Employed conventional screening method (Anal Biochem. 2000, 280: 159-65)
(§3) All the compounds were initially screened at the multiple concentrations 2 μg/mL, 20 μg/mL, 100 μg/mL. When the inhibitory activities of the compounds were larger than 50%, their estimated IC50 value were determinated at eight inhibitor concentrations.

hMetAP1 = hMetAP1 (Homo sapiens, UniProt P53582); assay: hMetAP1 inhibition; format: biochemical
Source text: as §1, §2, §3

[1] = molecular target: type 2 methionine aminopeptidase (Homo sapiens, UniProt P50579); details: covalent binding inhibitors; cited from earlier work
EcMetAP1 = EcMetAP1 (Escherichia coli, UniProt P0AE18); details: read-out: IC50 EcMetAP1; cited from earlier work
EcMetAP1, sequence (P0AE18 whole entry): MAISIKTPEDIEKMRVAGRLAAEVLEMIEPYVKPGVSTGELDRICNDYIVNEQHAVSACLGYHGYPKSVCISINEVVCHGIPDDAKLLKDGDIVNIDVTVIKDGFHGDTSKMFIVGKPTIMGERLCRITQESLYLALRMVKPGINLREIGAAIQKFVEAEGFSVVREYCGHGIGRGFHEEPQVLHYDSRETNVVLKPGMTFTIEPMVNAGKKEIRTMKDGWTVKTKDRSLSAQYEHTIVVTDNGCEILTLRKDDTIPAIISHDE

T1 sequence (P0AE18 whole entry): as above
type 2 methionine aminopeptidase, sequence (P50579 whole entry): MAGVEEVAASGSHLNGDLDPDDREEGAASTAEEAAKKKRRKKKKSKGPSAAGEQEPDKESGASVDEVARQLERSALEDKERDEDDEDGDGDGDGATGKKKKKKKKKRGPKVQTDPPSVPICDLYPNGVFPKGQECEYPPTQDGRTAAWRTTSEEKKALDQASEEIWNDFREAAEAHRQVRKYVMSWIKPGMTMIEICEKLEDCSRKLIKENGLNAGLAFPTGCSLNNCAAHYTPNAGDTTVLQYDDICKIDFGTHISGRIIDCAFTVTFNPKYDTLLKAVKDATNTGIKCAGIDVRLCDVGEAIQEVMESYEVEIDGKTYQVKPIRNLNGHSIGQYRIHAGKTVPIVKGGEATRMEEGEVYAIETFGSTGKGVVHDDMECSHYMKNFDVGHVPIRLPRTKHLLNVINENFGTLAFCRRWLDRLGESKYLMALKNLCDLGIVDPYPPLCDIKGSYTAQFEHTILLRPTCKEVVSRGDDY

Molecule	IC50 (EcMetAP)	IC50 (hMetAP1)	further results
COc1ccccc1C(=O)Oc1cccnc1C(=O)Nc1nccs1 [Compound 37]	1.9 µM	15.4 µM	–
O=C(Nc1nccs1)c1ncccc1OCc1ccccc1 [Compound 47]	5.31 µM	7.8 µM	–
CO[C@@H]1[C@H](OC(=O)/C=C/C=C/C=C/C=C/C(=O)O)CC[C@]2(CO2)[C@H]1[C@@]1(C)O[C@@H]1CC=C(C)C [fumagillin]	–	–	IC50 MetAPs [1]: in the nM range
O=C(Oc1cccnc1C(=O)Nc1nccs1)c1ccc(F)c(Br)c1 [Compound 45]	1.35 µM	17.4 µM	–
Nc1ccccc1C(=O)Nc1nccs1 [Compound 7]	–	–	inhibition at 20 µg/mL (EcMetAP; read-out: inhibition of EMetAP): 30%
AHHPA-Ala-Leu-Val-Phe-OMe	–	–	IC50 (EcMetAP1): 5 µM
O=C(Oc1cccnc1C(=O)Nc1nccs1)c1ccc(F)cc1 [Compound 46]	1.31 µM	7 µM	–
COc1ccnc(C(=O)Nc2nccs2)c1 [Compound 30]	9.22 µM	–	–
Nc1cccnc1C(=O)Nc1nccs1 [Compound 50]	5.56 µM	11 µM	–
O=C(Nc1nccs1)c1cc(Cl)ccn1 [Compound 16]	4.84 µM	–	–
O=C(Nc1ncc(Br)s1)c1ccccn1 [Compound 17]	6 µM	–	–
O=C(Nc1cccnc1C(=O)Nc1nccs1)c1ccc(F)cc1 [Compound 53]	0.05 µM	–	–
Cc1nc(C(=O)Nc2nccs2)cs1 [Compound 55]	0.4 µM	–	–
O=C(Nc1nccs1)c1cccc(CO)n1 [Compound 32]	5.82 µM	–	–
O=C(Nc1nccs1)c1ncccc1O [Compound 31]	2.33 µM	–	–
COc1cccnc1C(=O)Nc1nccs1 [Compound 35]	4.49 µM	20.9 µM	–
O=C(Oc1cccnc1C(=O)Nc1nccs1)c1ccccc1 [Compound 36]	1.1 µM	28.7 µM	–
CO[C@@H]1[C@H](OC(=O)NC(=O)CCl)CC[C@]2(CO2)[C@H]1[C@@]1(C)O[C@@H]1CC=C(C)C [TNP-470]	–	–	IC50 MetAPs [1]: in the nM range
O=C(Oc1cccnc1C(=O)Nc1nccs1)c1cccc([N+](=O)[O-])c1 [Compound 41]	1.91 µM	7.3 µM	–
CC(C)(C)OC(=O)Nc1cccnc1C(=O)Nc1nccs1 [Compound 52]	1.25 µM	–	–
CC(=O)Oc1cccnc1C(=O)Nc1nccs1 [Compound 34]	8.2 µM	29 µM	–
O=C(Nc1nccs1)c1ccc2ccccc2n1 [Compound 27]	51 µM	–	–
COc1ccccc1/C=C/C(=O)Oc1cccnc1C(=O)Nc1nccs1 [Compound 44]	1.8 µM	–	–
O=C(Nc1cccnc1C(=O)Nc1nccs1)c1ccccc1 [Compound 51]	0.14 µM	–	–
